For assay [1], the system named is S. enterica subsp. enterica enteritidis DSM 14221. The format is cell-based, Salmonella enterica.
The test system of assay [2] is Vibrio parahaemolyticus DSM 10027. The format is cell-based. Conditions: concluded from experiments with knock-out mutants.

The values below come from patent US20250090603A1, “COMPOSITIONS CONTAINING BACILLAENE PRODUCING BACTERIA OR PREPARATIONS THEREOF” (Evonik Operations GmbH, priority 2019, published 2025).

Consider `C/C(=C/C=C/C=C/C(C)C(=O)O)NC(=O)CC(O)\C(C)=C/C=C\C=C(C)\C=C\C=C/C=C/CNC(=O)C(O)CC(C)C` (centres unmarked) [bacillaene], for which the “inhibition of growth of Salmonella enterica (in words)” value in assay [1] is given as “effectively inhibit the growth”. For the same compound, the “inhibition of growth of Vibrio parahaemolyticus (in words)” value in assay [2] is on record as “effectively inhibit the growth”.
